In patent US20060178307A1, “Modulation of NMDA receptor currents via orexin receptor and/or CRF receptor” (priority 2005, published 2006):
Entries after “also recorded” stand apart in the source; their conditions may differ. Where no end group is shown, it is not given here.

Assays:
[1] = system: NMDAR-mediated EPSCs in VTA dopamine neurons; experiment: Evoked NMDAR-mediated EPSCs, whole-cell voltage clamp at +40 mV, VTA neurons in midbrain slices; assay type: cell-based, rat; conditions: for effect on orexin A-mediated potentiation of NMDAR EPSCs: antagonist 1 μM, n=8 (FIG. 1C)
Procedure: Excitatory postsynaptic currents (EPSCs) were recorded from VTA neurons in rat midbrain slices. EPSCs were evoked while holding neurons in voltage clamp at +40 mV. Measurements were taken 20 ms after the stimulus artifact, a time point at which the glutamatergic EPSC is mediated purely by NMDARs.
The patch pipette was loaded with the PLC inhibitor, U-73122 (1 μM, FIG. 2A, C, n=6) or the PKC inhibitor, chelerythrin (1 μM, FIG. 1A, B, n=6). […] Next, the protein kinase A inhibitor, PKI (20 μM, FIG. 2A, F, n=8) or Rp-cAMPs, a blocker of cAMP (100 μM, FIG. 2A, E, n=5) was added to the patch pipette.
Activation of PKC is implicated in NMDAR-dependent long-term potentiation (Malinow et al., 1989) and it modulates NMDAR trafficking to the membrane (Lan et al., 2001; Scott et al., 2001; Fong et al., 2002). NMDARs can translocate from intracellular or extrasynaptic pools to synaptic sites (Lan et al., 2001; Tovar and Westbrook, 2002). […] In a separate group of slices, orexin A (100 nM, n=6) was applied for 5 min during the washout period.
All of the electrophysiological recordings were performed in rats ranging from P21 to P30. Briefly, rats were anesthetized with halothane and sacrificed. Horizontal sections of the VTA ([…]) were prepared with a vibratome (Leica, Nussloch, Germany). Slices were placed in a holding chamber and allowed to recover for at least 1 hour before being placed in the recording chamber and superfused with bicarbonate-buffered solution (ACSF) saturated with 95% O2/5% CO2 and containing (in mM): 119 NaCl, 1.6 KCl, 1.0 NaH2PO4, 1.3 MgCl2, 2.5 CaCl2, 26.2 NaHCO3 and 11 glucose (at 32-34° C.). Picrotoxin (100 μM) was added to block GABAA receptor-mediated inhibitory postsynaptic currents. Cells were visualized using infrared differential interference contrast video microscopy. Whole-cell voltage clamp recordings were made using an Axopatch 1D amplifier (Axon Instruments, Union City, Calif.). Electrodes (2.8-4.0 MΩ) contained (in mM): 120 Cesium Methansulfonate, 20 HEPES, 0.4 EGTA, 2.8 NaCl, 5 TEA-Cl, 2.5 MgATP, and 0.25 NaGTP, pH 7.2-7.3 (270-285 mOsm). Series resistance (10-40 MΩ) and input resistance were monitored on-line with a 4-mV depolarizing step (50 ms) given just after every afferent stimulus. Dopaminergic VTA neurons were identified by the presence of a large Ih current (Lacey et al., 1990; Johnson and North, 1992) and, in some cases, tyrosine hydroxylase labeling. A bipolar stimulating electrode was placed 100-300 μm rostral to the recording electrode and was used to stimulate excitatory afferents at 0.1 Hz. Neurons were voltage-clamped at −70 mV and +40 mV to record AMPAR- and NMDAR-mediated EPSCs.

AMPAR mEPSCs = experiment: AMPAR-mediated miniature EPSCs (mEPSCs) in VTA neurons; assay type: cell-based, rat
Procedure: Next, to investigate whether AMPAR function and/or number was modified with orexin A treatment, AMPAR-mediated miniature EPSCs (mEPSCs) were examined (a standard method for determining the locus of synaptic change). Compared to untreated neurons, orexin A (100 nM) caused a significant increase in both amplitude (FIG. 6C,D,F) and frequency (FIG. 6C,E,G) 3-4 hours after application (24±1.6 pA; 2.4±0.5 Hz; n=7 vs control: 13±1.3 pA; 0.93±0.16 Hz; n=7; FIG. 6A), but not at 15 min (15±1.7 pA; 0.9±0.1 Hz; n=[…], FIG. 6B).
AMPAR mEPSCs were recorded in cells voltage-clamped at −70 mV in lidocaine (500 μM), APV (50 μM) and sucrose (100 mM). NMDAR mEPSCs were recorded at −40 mV in Mg2+-free external solution with lidocaine (500 μM), glycine (20 μM), and CNQX (10 μM). mEPSCs were collected using Clampex (Axon Instruments) and analyzed using Mini Analysis Program (Synaptosoft). Detection criteria were set at >10 pA, <1 ms rise-time, and <3 ms decay-time for AMPAR mEPSCs and >10 pA, <1 ms rise-time, and <10 ms decay-time for NMDAR mEPSCs. mEPSC traces were recorded while sampling every 10 μs, the images were filtered at 5 kHz. Averaged mEPSCs were constructed using Mini Analysis Program (Synaptosoft).

[2] = orexin A 100 nM in the presence of ifenprodil 3 μM, n=6
[3] = 3-4 hours after orexin A 100 nM, n=7
[4] = 3-4 hours after orexin A, APV 50 μM applied 3 min prior and during orexin, n=7
[5] = 15 min after orexin A 100 nM, n=6

Molecule: Cc1nc2ccc(NC(=O)Nc3ccnc4cccnc34)cc2o1.Cl [SB 334867, 1-(2-methylbenzoxazol-6-yl)-3-[1,5]naphthyridin-4-yl urea hydrochloride]
- effect on orexin A-mediated potentiation of NMDAR EPSCs ([1]; hydrochloride): significantly inhibited
- effect on orexin A-mediated potentiation of NMDAR EPSCs ([1]; listed as SB 334857, hydrochloride): blocked

Molecule: orexin A: neuropeptide synthesized in neurons of the LH; orexin receptor agonist selective for the OXR1 receptor (QPLPDCCRQKTCSCRLYELLHGAGNHAAGILTL; ends and bridges not checked; cysteine pairing not given here; UniProt O43612 34-66, looked up)
- response of neurons that did not express TH ([1]; 2 TH-negative neurons): neither responded
- NMDAR eEPSCs potentiated to a maximum of ([1]; 5 min co-application of orexin A 1 nM with CRF 10 nM, n=7): 123±12%
- NMDAR EPSC before orexin A ([1]; NR2A/C (NVP-AAM077 0.4 μM) and NR2B (ifenprodil 3 μM) inhibitors co-applied, n=6): 32±5%
- TH-containing neurons with potentiated NMDAR responses ([1]; biocytin-filled, tyrosine hydroxylase positive neurons): 7/8
- potentiation of NMDAR-mediated EPSCs ([1]; orexin A 1 nM (FIG. 1B), n=6): 5±1%
- potentiation of NMDARs ([1]; orexin A 1 nM (FIG. 14A), n=6): 5.7±1.6%
- potentiation of NMDAR-mediated EPSCs ([1]; orexin A 10 nM (FIG. 1B), n=6): 18±3%
- maximum current after MK-801 washout ([1]; orexin A 100 nM 5 min during washout of MK-801 10 μM, n=6): 40±17%
- potentiation of NMDAR-mediated EPSCs ([1]; orexin A 100 nM (FIG. 1B), n=6): 42±5%
- orexin A potentiation of NMDAR EPSCs ([1]; orexin A 100 nM after NVP-AAM077 0.4 μM and ifenprodil 3 μM co-application): largely inhibited; also recorded: blocked
- duration of potentiation after washout ([1]; orexin A 100 nM applied for 30 min): > 40 min
- potentiation of NMDAR EPSCs ([1]; orexin A 100 nM applied for 30 min, n=6): 74±16%
- potentiation of NMDAR-mediated EPSCs ([1]; orexin A 100 nM bath application 5 min (FIG. 1A), n=12): 49±9%
- maximum potentiation of NMDAR EPSCs ([1]; orexin A 100 nM in the presence of NVP-AAM077 0.4 μM, n=7): 20±6%
- effect on remaining current ([1]; orexin A 100 nM in the presence of NVP-AAM077, ifenprodil and PPDA): did not alter
- maximum amplitude, of baseline EPSCs [1, 2]: 107±16%
- potentiation of NMDAR-mediated EPSCs [1, 2]: 36%
- NMDAR EPSC after orexin A ([1]; orexin A 100 nM with NVP-AAM077 0.4 μM and ifenprodil 3 μM co-applied, n=6): 45±12%
- neurons with potentiation greater than 10% / neurons recorded ([1]; orexin A 100 nM, 5 min): 10/12
- maximum current after MK-801 and NMDA washout ([1]; orexin A 5 min during washout of MK-801 20 μM + NMDA 500 μM, n=6): 20±2%
- maximum potentiation of NMDARs ([1]; orexin A in the presence of Zn2+ (300 nM), n=5): 14±4%
- AMPAR mEPSC amplitude (AMPAR mEPSCs; [3]): 24±1.6 pA
- AMPAR mEPSC frequency (AMPAR mEPSCs; [3]): 2.4±0.5 Hz
- AMPAR mEPSC amplitude (AMPAR mEPSCs; [4]): 16±0.6 pA
- AMPAR mEPSC frequency (AMPAR mEPSCs; [4]): 1.6±0.3 Hz
- AMPAR mEPSC amplitude (AMPAR mEPSCs; [5]): 15±1.7 pA
- AMPAR mEPSC frequency (AMPAR mEPSCs; [5]): 0.9±0.1 Hz
